Source: patent US20030207813A1, “Retroviral protease inhibitor combinations” (priority 1995, published 2003)
In brackets after ≈: the same amount, converted by molar mass. Where two headings read alike, the source gives them in different places.

Key:
[1] = tested on: 89-959R (resistant strains selected from 89-959 against Example 2); test: Acute infectivity assay in PHA-activated donor lymphocytes, resistant isolate 89-959R; format: cell-based, HIV-1; conditions: Human immunodeficiency virus 1, Lymphocyte, read-out: Virus Isolate (EC50 ng/mL) 89-959R
Procedure: (§1) Approximately 3×10^7 cells are activated for 48 hours with about 3-5 μg/ml PHA in RPMI continuing 10% fetal bovine serum and IL-2 (10 U/ml). Quantitated virus stocks are added to the activated lymphocyte suspension at a multiplicity of infection of about 0.001-0.01. The cell-virus suspension is incubated at 37° C. for 2 hours to allow virus absorption. The residual virus inoculum is removed by centrifugation and the cells are resuspended in RPMI containing 10% FBS and 10 U/ml IL-2. These infected cells are added to the test-article diluted in complete tissue culture medium from a stock (10 mg/ml) in DMSO in 96 well microtiter plates to give about 5×10^5 cells per well per 200 μl. Infected, untreated cells and cells treated with DMSO alone (0.1%) or either AZT or DDI were used as controls. The cultures were examined for syncytia formation on days 7 and 11 post-infection or the supernants tested for reverse transcriptase activity or p24 antigen.
(§2) RF represents the HIV-1 strain HIV-LRF and RFR represents a mixture of resistant strains obtained by selection of RF against the compound of Example 1. RFR comprises a mixture of viral strains having protease genotypes of G48V (14/40 clones); G48V, V82A (18/40 clones); G48V, L90S (2/40 clones); G48V, 154T, V82A (1/40 clones); G48M (1/40 clones); G48V, Q61H (1/40 clones); V13I, G48V (1/40 clones); G48V, F53L, V82A (1/40 clones); and G48V, V82A, C95Y (1/40 clones). RFR2 represents a mixture of resistant strains obtained by cloning RFR by three rounds of growth at limiting dilution. RFR2 comprises a mixture of viral strains having protease genotypes of G48V, V82A (13/15 clones); G17E, G48V, V82A (1/15 clones); and G48V, V82A, N37D, N88D (1/15 clones). RFRR represents a mixture of resistant strains obtained by selection of RF against the compounds of Examples 1 and 2 and then cloning by three rounds of growth at limiting dilution. RFRR comprises a mixture of viral strains having protease genotypes of G48V, 154T, L63P, V82A (7/9 clones); G48V, 154T, L63P, V82A, N88S (1/9 clones); and G48V, 154T, L63P, G73M, V82A (1/9 clones). SF162 represents the HIV-1 strain SF-162 and SF162R represents a mixture of resistant strains obtained by selection of SF162 against the compound of Example 1. SF162R comprises a mixture of viral strains having protease genotypes of M461, F53L, L63P, A71V, N88D (2/3 clones); and M46I, F53L, L63P, A71V, N88D, Q92R (1/3 clones). 89-959 represents the HIV-1 strain 89-959 and 89-959R represents a mixture of resistant strains obtained by selection of 89-959 against the compound of Example 2. 89-959R comprises a mixture of viral strains having protease genotypes of N88S (4/5 clones); and D25N, T26A, D30N, D37N, R41K, G73D, R87K, N88S (1/4 clones). NL4 represents the HIV-1 strain HIV-1NL4-3. NL4(G48V) represents a strain having a synthetically generated site-directed mutation in the protease from glycine to valine at amino acid position number 48. NL4(I84V) represents a strain having a synthetically generated site-directed mutation in the protease from isoleucine to valine at amino acid position number 84. NL4(R8Q,M46I) represents a strain having synthetically generated site-directed mutations in the protease from arginine to glutamine at amino acid position number 8 and methionine to isoleucine at amino acid position number 46. NL4(P22-538) represents a mixture of resistant strains obtained by selection of HIV-1NL4-3 against the compound of Example 10 after 22 passages comprising protease genotypes M46I, L63P, A71V, V82F, I84V (4/10); M46I, L63P, V82F, I84V (3/10); and M46I, A71V, V82F, I84V (3/10). NL4(P37-538) represents resistant strains obtained by selection of HIV-1NL4-3 against the compound of Example 10 after 37 passages comprising protease genotype M46I, L63P, A71V, 184A. NL4(538/524) represents resistant strains obtained by selection of NL4(P22-538) against the compound of Example 5 after 24 passages comprising protease genotype M46I, L63P, A71V, 184A. […]

[2] = tested on: SF162R (resistant strains selected from SF162 against Example 1); test: Acute infectivity assay in PHA-activated donor lymphocytes, resistant isolate SF162R; format: cell-based, HIV-1; conditions: Human immunodeficiency virus 1, Lymphocyte
Procedure: as §1, §2

[3] = Table 1, read-out: Virus Isolate (EC50 ng/mL) SF162R
[4] = Table 2, read-out: Virus Isolate (EC50 ng/mL) SF162R

Row | Compound | EC50 ([1]; Table 3, (experiment ‡)) [ng/mL] | EC50 ([1]; Table 3, experiments † and §) [ng/mL] | EC50 [2, 3] [ng/mL] | EC50 [2, 4] [ng/mL]
1 | CC(C)CN(C[C@@H](O)[C@H](Cc1ccccc1)NC(=O)[C@H](CC(N)=O)NC(=O)c1ccc2ccccc2n1)C(=O)NC(C)(C)C (relative stereo) [Example 1, [1S-[1R*(R*),2S*]]-N^1-[3-[[[(1,1-dimethylethyl)amino]carbonyl])2-methylpropyl)amino]-2-hydroxy-1-(phenylmethyl)propyl]-2-[(2-quinolinylcarbonyl)amino]-butanediamide] | 37 (≈ 0.0612 µM) | 5 (≈ 0.00827 µM) | 443 (≈ 0.733 µM) | 111 (≈ 0.184 µM)
2 | CC(C)CCN(C[C@@H](O)[C@H](Cc1ccccc1)NC(=O)[C@H](CC(N)=O)NC(=O)c1ccc2ccccc2n1)C(=O)NC(C)(C)C (relative stereo) [Example 7, [1S-[1R*(R*),2S*]]-N^1-[3-[[[(1,1-dimethylethyl)amino]carbonyl](3-methylbutyl)amino]-2-hydroxy-1-(phenylmethyl)propyl]-2-[(2-quinolinylcarbonyl)amino]-butanediamide] | – | 12 (≈ 0.0194 µM) | – | 108 (≈ 0.175 µM)
3 | CC(C)(C)NC(=O)[C@@H]1CC2CCCC[C@@H]2CN1C[C@@H](O)[C@H](Cc1ccccc1)NC(=O)[C@H](CC(N)=O)NC(=O)c1ccc2ccccc2n1 (stereo in doubt) [Example 6, N-tert-Butyl decahydro-2-[2(R)-hydroxy-4-phenyl-3(S)-[[N-(2-quinolylcarbonyl)-L-asparaginyl]amino]butyl]-(4aR,8aS)-isoquinoline-3(S)-carboxamide] | 6 (≈ 0.00894 µM) | – | 11 (≈ 0.0164 µM) | –
4 | CNCC(=O)N[C@H](C(=O)N[C@@H](Cc1ccccc1)[C@H](O)CN(CCC(C)C)C(=O)NC(C)(C)C)C(C)(C)C [Example 2, (2R,3S)-3-(N-methylaminoacetyl-L-tert-butylglycinyl)amino-1-(N-isoamyl-N-(tert-butylcarbamoyl))amino-4-phenyl-2-butanol] | 872 (≈ 1.63 µM) | 395 (≈ 0.74 µM) | 6 (≈ 0.0112 µM) | –
5 | CC(C)(C)NC(=O)[C@@H]1CN(Cc2cccnc2)CCN1C[C@@H](O)C[C@@H](Cc1ccccc1)C(=O)N[C@H]1c2ccccc2C[C@H]1O [Example 5, N-(2(R)-Hydroxy-1(S)-indanyl)-2(R)-phenylmethyl-4(S)-hydroxy-5-(1-(4-(3-pyridylmethyl)-2(S)-N′-(t-butylcarboxamido)-piperazinyl))-pentaneamide] | 38 (≈ 0.0619 µM) | 5 (≈ 0.00815 µM) | – | –
6 | CC(C)CN(C[C@@H](O)[C@H](Cc1ccccc1)NC(=O)[C@H](CC(N)=O)NC(=O)c1ccc2ccccc2n1)S(=O)(=O)NC(C)(C)C [Example 8, N-[3-[N^2-[N^1-(1,1-dimethylethyl)aminosulfonyl]-N^2-(2-methylpropyl)amino]-2R-hydroxy-1S-(phenylmethyl)propyl]-2S-[(2-quinolinylcarbonyl)amino]butanediamide] | – | 11 (≈ 0.0172 µM) | – | 98 (≈ 0.153 µM)
